“And” between values parts separate entries of the source, which are not always exact repeats. Identical values can stand only once. Like-named read-outs stand apart in the source and are kept apart here.
Key:
[1] = system: herpes labialis eruptions; conditions: in vivo
Source text: 23.4—Application of Gelled Alcohol
In this example some of the gelled compositions contained 1.6% by weight HPC and others contained 1.6% by weight EHEC.

[2] = system: herpes labialis eruptions; assay: Herpes labialis eruptions, prolonged contact with impregnated cotton (Example 23.2); assay type: in vivo, human; conditions: for symptom relief: intensive depot treatment
[3] = system: herpes labialis eruptions; conditions: glass container; for symptom relief: two early phases
[4] = system: recurrent herpes genitalia, herpes febrilis (labialis); conditions: nonimmunocompromised patients; cited from earlier work
[5] = system: herpes simplex virus (HSV) type 1; assay: Inactivation of herpes simplex virus in infected MRC-5 cells by alcohols (Example 25); assay type: cell-based; conditions: for HSV - CPE after 44 hours with the detecting cell-layer: duplicate wells; on HSV - CPE after 44 hours with the detecting cell-layer: key: 0: no CPE; 1: a few; 2: several; 3: all cells infected with HSV
Method: Ethanol is an accepted disinfectant for viruses with an envelope. The purpose of this study was to measure the inactivating effect of “short-chained alcohols” on virus-infected cells.
Four 96 well plates with confluent MRC-5 cell were infected with herpes simplex virus (HSV) type 1. After appearance of 50% cytopathic effect (CPE), the culture medium was removed, and rows of 12 wells were treated with 25 μl/well of the alcohols or buffer after the following scheme: The first row with undiluted, and the following with 96%, 90%, 80%, 70%, 60% and 50% alcohol, respectively—all dilutions performed in buffer (PBS). To the last row was added buffer. After 2, 4, 8, 16 and 32 min, respectively, two wells in each row were emptied and the cells overlaid with PBS. The plate was then frozen at —80° C. Afterwards the wells were seeded with a detection layer of MRC-5 cells and the plates were placed at 37° C. for 44 hours. Virus surviving the treatment with alcohol was detected by the appearance of CPE, characteristic for HSV in the detection monolayer.

Compound: CCO [Ethanol 90%]
- pain reaction on application in the ulceration phase [1]: less pain or shorter duration

Compound: CCO [Ethanol 95%]
- symptom relief [2]: palliative effect on symptom relief
- eruption abortive effect [3]: clearly observed
- eruption shortening effect [3]: likewise observed
- symptom relief [3]: very strong symptom relief
- pain reaction on application in the ulceration phase [1]: slight pain of short duration

Compound: CCO [Ethanol 99%]
- abortive effect ([2]; early phase and vesicular phase): some abortive effect
- symptom relief [2]: palliative effect on symptom relief
- eruption abortive effect [3]: clearly observed
- eruption shortening effect [3]: likewise observed
- symptom relief [3]: very strong symptom relief
- pain reaction on application in the ulceration phase [1]: slight pain of short duration

Compound: Nc1nc2c(ncn2COCCO)c(=O)[nH]1 [Topical acyclovir, acyclovir]
- effectiveness in recurrent herpes genitalia / labialis [4]: not effective

Compound: CCO [Ethanol]
- HSV - CPE after 44 hours with the detecting cell-layer ([5]; 50% alcohol in PBS, 2 min): 3
- HSV - CPE after 44 hours with the detecting cell-layer ([5]; 50% alcohol in PBS, 4 min): 3
- HSV - CPE after 44 hours with the detecting cell-layer ([5]; 50% alcohol in PBS, 8 min): 3
- HSV - CPE after 44 hours with the detecting cell-layer ([5]; 50% alcohol in PBS, 16 min): 3
- HSV - CPE after 44 hours with the detecting cell-layer ([5]; 50% alcohol in PBS, 32 min): 3
- HSV - CPE after 44 hours with the detecting cell-layer ([5]; 60% alcohol in PBS, 2 min): 3
- HSV - CPE after 44 hours with the detecting cell-layer ([5]; 60% alcohol in PBS, 4 min): 3
- HSV - CPE after 44 hours with the detecting cell-layer ([5]; 60% alcohol in PBS, 8 min): 3
- HSV - CPE after 44 hours with the detecting cell-layer ([5]; 60% alcohol in PBS, 16 min): 3
- HSV - CPE after 44 hours with the detecting cell-layer ([5]; 60% alcohol in PBS, 32 min): 3
- HSV - CPE after 44 hours with the detecting cell-layer ([5]; 70% alcohol in PBS, 2 min): 3
- HSV - CPE after 44 hours with the detecting cell-layer ([5]; 70% alcohol in PBS, 4 min): 3
- HSV - CPE after 44 hours with the detecting cell-layer ([5]; 70% alcohol in PBS, 8 min): 3
- HSV - CPE after 44 hours with the detecting cell-layer ([5]; 70% alcohol in PBS, 16 min): 3
- HSV - CPE after 44 hours with the detecting cell-layer ([5]; 70% alcohol in PBS, 32 min): 3
- HSV - CPE after 44 hours with the detecting cell-layer ([5]; 80% alcohol in PBS, 2 min): 2
- HSV - CPE after 44 hours with the detecting cell-layer ([5]; 80% alcohol in PBS, 4 min): 2
- HSV - CPE after 44 hours with the detecting cell-layer ([5]; 80% alcohol in PBS, 8 min): 2
- HSV - CPE after 44 hours with the detecting cell-layer ([5]; 80% alcohol in PBS, 16 min): 2
- HSV - CPE after 44 hours with the detecting cell-layer ([5]; 80% alcohol in PBS, 32 min): 2
- HSV - CPE after 44 hours with the detecting cell-layer ([5]; 90% alcohol in PBS, 2 min): 1
- HSV - CPE after 44 hours with the detecting cell-layer ([5]; 90% alcohol in PBS, 4 min): 1 and 0
- HSV - CPE after 44 hours with the detecting cell-layer ([5]; 90% alcohol in PBS, 8 min): 0
- HSV - CPE after 44 hours with the detecting cell-layer ([5]; 90% alcohol in PBS, 16 min): 0
- HSV - CPE after 44 hours with the detecting cell-layer ([5]; 90% alcohol in PBS, 32 min): 0
- HSV - CPE after 44 hours with the detecting cell-layer ([5]; 96% alcohol in PBS, 2 min): 1
- HSV - CPE after 44 hours with the detecting cell-layer ([5]; 96% alcohol in PBS, 4 min): 1 and 0
- HSV - CPE after 44 hours with the detecting cell-layer ([5]; 96% alcohol in PBS, 8 min): 0
- HSV - CPE after 44 hours with the detecting cell-layer ([5]; 96% alcohol in PBS, 16 min): 0
- HSV - CPE after 44 hours with the detecting cell-layer ([5]; 96% alcohol in PBS, 32 min): 0
- inactivation of herpes simplex virus (in words) ([5]; HSV type 1 infected MRC-5 cells): able to inactivate herpes simplex virus even intracellular virus
- HSV - CPE after 44 hours with the detecting cell-layer ([5]; alcohol undiluted, 2 min with alcohol): 0
- HSV - CPE after 44 hours with the detecting cell-layer ([5]; alcohol undiluted, 4 min): 0
- HSV - CPE after 44 hours with the detecting cell-layer ([5]; alcohol undiluted, 8 min): 0
- HSV - CPE after 44 hours with the detecting cell-layer ([5]; alcohol undiluted, 16 min): 0
- HSV - CPE after 44 hours with the detecting cell-layer ([5]; alcohol undiluted, 32 min): 0

— patent publication US6342537B1, “Gel for treatment of skin diseases and for disinfection of the skin” (priority 1994, dated 2002)
